Test results as given in paper PMC3486420, “In Vitro and In Vivo Characterizations of Chiglitazar, a Newly Identified PPAR Pan-Agonist” (PPAR Research, 2012).

Assays:
[1] = system: SMMC-7721 cells; experiment: Gene expression by RT-PCR in SMMC-7721 cells; assay type: cell-based, human; settings: 48 h, 10 μM rosiglitazone, 10 μM chiglitazar
From the text: (§1) cDNAs for human retinoid X receptor (hRXR), PPARα, PPARγ, and PPARδ were obtained by reverse transcriptase polymerase chain reaction (RT-PCR) from human liver or adipose tissues. Amplified cDNAs were cloned into pcDNA3.1 expression vector (Invitrogen, Carlsbad, CA, USA). The integrity and fidelity of all constructs made were verified by DNA sequencing. Luciferase reporter plasmids, ACOX promoter for PPARγ and pHD(X3)-luc for PPARα, were kind gifts of Drs. TM McIntyre (University of Utah, USA) and RA Rachubinski (University of Alberta, Canada), respectively. PPRE-luc for PPARδ was constructed based on the previous report by insertion of the annealed oligonucleotides having four copies of the CYP4A6 PPRE (4 × […]) into the upstream of the luciferase coding sequence in pGL3-promoter vector (Promega, Madison, WI, USA). pCMVβGal was purchased from Clontech (Palo Alto, CA, USA). The mouse 3T3-L1 preadipocyte cell line, skeletal muscle C2C12 cell line, and macrophage RAW267.4 cell line and the human osteosarcoma U2OS cell line were obtained from the American Type Culture Collection (ATCC, Rockville, MD, USA). The human hepatoma SMMC-7721 cell line was obtained from the Cell Culture Center of Chinese Academy of Medical Sciences (Beijing, China). Cell lines were cultured in medium of DMEM (3T3-L1, C2C12, and SMMC-7721), RPMI 1640 (RAW267.4), or McCoy's 5A (U2OS), containing 10% fetal bovine serum (FBS), 50 μg/mL streptomycin, and 50 units/mL penicillin at 37°C in a humidified incubator with 5% CO2.
(§2) Total RNA was extracted from cells or tissues with an RNeasy minikit (Qiagen, Valencia, CA, USA). The first-strand cDNA was synthesized using the oligo(dT) primers, followed by using SuperScript II reverse transcriptase (Invitrogen) according to the manufacturer's instructions. The PCR amplifications were performed in 10 μL of reaction mixture volume containing 0.8 μL of cDNA, 10 mM Tris-HCl (pH 8.3), 50 mM KCl, 1.5 mM MgCl2, 0.1% Triton X-100, 0.2 mM deoxynucleotide triphosphates, 0.4 μM primers, and 0.25 U of Taq polymerase (TaKaRa Biotechnology Co., Ltd, China). Taq DNA polymerase was added to each tube after a treatment of 2 min at 94°C. This was followed by 22–30 cycles of denaturation (23 s at 94°C), annealing (20 s at 55°C), extension (30 s at 72°C), and a final extension step of 2 min. PCR products were analyzed by electrophoresis on a 1.5% agarose gel stained with ethidium bromide.
(§3) Figure 1 In vitro regulation of gene expression by chiglitazar. (a) Endogenous expression of individual PPAR subtypes in cell lines. […]. The expression change of referred genes induced by different compounds was normalized against internal control (36B4 or GAPDH) and then compared with vehicle control treatment. The data shown are averaged from 3 independent experiments.

[2] = system: RAW267.4 cells; experiment: Gene expression by RT-PCR in RAW267.4 cells; assay type: cell-based, mouse; settings: 48 h, 10 μM chiglitazar
From the text: as §1, §2, §3

[3] = system: KKAy mice; experiment: Oral treatment of diabetic KKAy mice (glucose, body weight); assay type: in vivo, mouse
From the text: Male db/db mice (BKS.Cg-m +/+ LEPR^db) in 6-7 weeks were purchased from The Jackson Laboratory (Bar Harbor, ME, USA). Male KKAy and C57BL/6J mice in 8–10 weeks were obtained from the Institute of Animal Science, Chinese Academy of Medical Sciences and Peking Union Medical College (Beijing, China). Animals were randomly sorted into different treatment groups (8–10 per group). […] Plasma glucose levels were examined at various time points by Accu-Chek Advantage II Glucose Strips (Roche Diagnostics, Basel, Switzerland) and measured by Accu-Chek Advantage (Roche Diagnostics). Animals were sacrificed 24 h after the last dosing and abdominal fat pad, liver, and skeletal muscle from KKAy mice and abdominal fat pad from db/db mice were taken for gene expression analysis.
Figure 2 In vivo effects on blood glucose control and insulin sensitization of chiglitazar. […] Plasma glucose (a and b) and insulin (c) levels were measured at the indicated time points. […] Data are expressed as mean ± SE.
Figure 4 Influence in body and abdominal fat pad weights of chiglitazar. […] Changes in body weight were evaluated at the indicated days (b), and the fat pads were weighed from the scarified animals at day 15 (c). ^# P < 0.05 compared with day 0, and *P < 0.05 compared with Ctrl. n = 8 per group for KKAy, and n = 10 per group for db/db. Data are expressed as mean ± SE.

`O=C(c1ccc(F)cc1)c1ccccc1NC(Cc1ccc(OCCn2c3ccccc3c3ccccc32)cc1)C(=O)O` (stereo not drawn) [Chi, 2-[(2-(4-fluorobenzoyl)phenyl)amino]-3-[4-(2-carbazolylethoxy)-phenyl]-propionic acid] was tested, and the “Expression of PPARγ downstream genes AOX, LIPC and HSL” value ([1]; vs vehicle) was “upregulated”, the “Expression of LDL receptor (LDLR)” value ([1]; 50 μM WY14643, 5 μM 2-Bro) was “kept no change” and the “Expression of PPARα and/or PPARδ downstream gene SRA” value ([2]; 50 μM WY14643, 5 μM 2-Bro, compared with rosiglitazone 10 μM) was “more significantly upregulated”. The “Expression of PPARγ downstream gene CD36” value ([2]; 10 μM rosiglitazone, vs vehicle) was “upregulated”, the Body weight ([3]; 5 and 20 mg kg^−1 oral daily, 12 days, in comparison with rosiglitazone 5 mg kg^−1) was “did not increase” and the “BG (blood glucose) levels” value ([3]; oral daily, 5 to 20 mg kg^−1, 12 days) was “significantly lowered”.
